Where two headings read alike, the source gives them in different places.
Columns and labels:
Assay type in all cases: cell-based, human
[1] = tested on: NCI-H929-1051 (lenalidomide-resistant); experiment: Cell proliferation assay (CTG, 120 h); details: for IC50: Homo sapiens, 120 h
Experimental: Cell Culture Materials: Human multiple myeloma cell lines were purchased from the vendors and cultured at 37° C. with 5% CO2 in the media as indicated in Table 1. Lenalidomide and pomalidomide resistant cell lines were obtained by methods as generally described previously (Lopez-Girona et al Leukemia 2012; 26(11): 2335). All cell lines were kept in log phase, and cell density and viability were monitored by trypan blue exclusion using the Vi-cell XR cell viability analyzer (Beckman Coulter, Brea, CA).
Preparation of Solutions of Test Article: Compounds were plated into black 384-well plates (Corning Inc.) to a final DMSO volume of 0.1% assuming a maximal volume of 50 μL. A 10-point dose response starting at 10 μM with a 1:3 dilution was printed in duplicate by acoustic dispense using the EDC ATS-100 platform. Alternatively, the 10-point dose response starting at 10 μM with a 1:10 dilution, or starting at 100 nM with a 1:3 dilutions were used.
Cell Proliferation Assays: The effect of compounds on the proliferation/viability of the hematological cell lines (Table 1), was assessed after 120 h incubation using CTG (Promega), according to manufacturer's instructions. Hematological cell lines were dispensed into compound plates by a Multidrop Combi Reagent Dispenser (Thermo Scientific, Waltham, MA) at a concentration of 0.1×10^6 cells per mL in a 50 μL total volume. At 120 h, 25 μL per well of CTG was dispensed by a Multidrop Combi Reagent Dispenser and adenosine triphosphate (ATP) release by viable cells was measured as relative luminescence units after 30 minutes using the Envision platform.
Results. […] The MM cell lines selected for this study were lines sensitive and resistant to lenalidomide and/or pomalidomide (Table 1), two agents used in the clinic to treat myeloma patients. Proliferation was assessed using the CellTitre-Glo© assay. Results for cultures incubated with the compounds were normalized to results for control cultures for each cell line. The IC50 for inhibition of cell growth by the compounds was determined for each cell line using ActivityBase software.
Combination with Dexamethasone. The activity of pomalidomide with that of Compound 2 alone or in combination with dexamethasone was evaluated across a panel of MM cell lines. […] Table 3 summarizes the potency (IC50) of the single agent and dexamethasone combination studies performed in the H929-1051 cell line. […] Each IC50 is the average from at least 3 independent experiments. Proliferation was monitored on Day 5 using Cell Titer-Glo.

[2] = tested on: MM cell lines; experiment: Daratumumab-mediated ADCP assay; details: for daratumumab-mediated ADCP: ARH-77 cell line
Experimental: ADCP assay: The effect of Compound 2 or pomalidomide on daratumumab-mediated ADCP was determined in a panel of MM cell lines. Monocytes were plated in a 96 well plate at 40,000 cells per well in 100 μL volume of complete AIM-V media containing 50 ng/mL of M-CSF. The cells were allowed to settle onto the plate for 15 minutes at room temperature before placing into 37° C., 5% C02 incubator for 9 days to allow for differentiation into macrophages. The culture media was replenished with fresh complete media every 3-4 days. On the morning of the ADCP assay, the macrophages were serum starved for 2-4 hours at 37° C., 5% C02 before co-culturing with the MM cells. The MM cells were pretreated with sub-lethal concentrations of Compound 2 or pomalidomide for 72 h. On the day of the assay, the MM cells were washed with PBS and labeled with CSFE for 15 minutes. The reaction was stopped with an equal volume of 20% FBS. The cells were washed twice with PBS and resuspended in AIM-V media at 1.6×10^6 cells/mL. Then 50 μL of MM cells was mixed with 50 μL of 2 μg/mL daratumumab for 10 minutes at room temperature before adding to the serum starved macrophages. Each condition was assayed in triplicate. The final volume of the assay was 200 μL containing 10% human serum with an effector to target ratio of […]. The plate was spun at 500 rpm for 1 minute followed by incubation at 37° C., 5% CO2 for 3 h. At the end of the incubation, the plate was washed with 100 μL of PBS and the remaining cells were stained with anti-CD14 and anti-CD138 to identify the macrophages and MM cells, respectively. The plate was washed and the wells were filled with 100 μL of PBS. The macrophages were detached from the bottom of the wells with the addition of 50 μL of 0.25% trypsin. The samples were neutralized with the addition of 50 μL of complete AIM-V media. The samples were analyzed on flow cytometer. The percent phagocytosis was determined by the CSFE/CD14 double positive cells divided by the total number of CD14+ cells times 100.

[3] = tested on: JJN-3; experiment: Flow cytometry proliferation/apoptosis assay (120 h)
Experimental: Methods. […] Using 5 mM stocks, compounds were pre-spotted into the appropriate wells of 96-well plates using a Hewlett-Packard D300 Digital Dispenser. Cells were added to 96-well plates using a Multidrop Combi Reagent Dispenser. After 5 days of treatment, flow cytometric analysis was used to determine the number of cells that were alive, dead, or apoptotic. After 5 days of treatment, cells were incubated with annexin V to stain exposed phosphatidylserine, an apoptotic cell-surface marker, and the vital dye 7-AAD, which is excluded from cells with intact cell membranes, and analyzed by flow cytometry (Attune®, Thermo Fisher). Analysis was then performed to determine the number of live cells (annexin V and 7-AAD double negative staining cells) and the percentage of apoptotic cells (annexin V positive cells) for each condition, relative to the DMSO control treated, was calculated. All described values were normalized to DMSO-only treated cells. […] The live cell count for every concentration was normalized to the DMSO control (considered as 100%) in Microsoft Excel to generate the proliferation curves. […] Similarly, for apoptosis analysis, the percentage of drug-induced apoptosis was calculated for all doses by combining both “early” (annexin V positive and 7-AAD negative) and “late” apoptosis (annexin V and 7-AAD positive) values and subtracting background values (cell treated with vehicle control DMSO). […] The area under the dose-response curve (AUC) was calculated since it integrates potency and efficacy of the drugs to represent apoptosis into a single parameter.
Each data point represents 2 independent experiments with at least two samples in each experiment.

[4] = CTG, read-out: NCI-H929.1051 120 h IC50
[5] = JJN-3 (DSMZ); 120 h; scale 0-10000
[6] = read-out: 0.01 μM Dex Combo IC50, H929-1051, Day 5, in combination with 0.01 μM dexamethasone
[7] = read-out: 0.1 μM Dex Combo IC50, H929-1051, Day 5, in combination with 0.1 μM dexamethasone
[8] = read-out: 1 μM Dex Combo IC50, H929-1051, Day 5, in combination with 1 μM dexamethasone
[9] = H929-1051, Day 5 Cell Titer-Glo, single agent, read-out: Single Agent IC50

Row | Structure (SMILES) | IC50 [1, 4] | daratumumab-mediated ADCP of pretreated MM cells ([2]; 72 h pretreatment, macrophages E:T 2:1) | daratumumab-mediated ADCP [2] | IC50 ([3]; Homo sapiens, JJN-3, 120 h, read-out: Antiproliferative Activity (Flow Cytometry) IC50) | induced apoptosis AUC (area under the dose response curve) [3, 5] | potency of single agent versus pomalidomide-dexamethasone combination ([1]; H929-1051) | IC50 [1, 6] | IC50 [1, 7] | IC50 [1, 8] | IC50 [1, 9] | IC50 ([3]; Homo sapiens; JJN-3; 120 h; read-out: Antiproliferative Activity (Flow Cytometry) IC50)
1 | N#Cc1ccc(N2CCN(Cc3ccc(COc4cccc5c4CN(C4CCC(=O)NC4=O)C5=O)cc3)CC2)c(F)c1 (racemic) [Compound 1, 4-(4-(4-(((2-(2,6-dioxopiperidin-3-yl)-1-oxoisoindolin-4-yl)oxy)methyl)benzyl)piperazin-1-yl)-3-fluorobenzonitrile] | 2.5 nM |  |  |  |  |  |  |  |  |  | 
2 | N#Cc1ccc(N2CCN(Cc3ccc(COc4cccc5c4CN([C@H]4CCC(=O)NC4=O)C5=O)cc3)CC2)c(F)c1 [Compound 2, (S)-4-(4-(4-(((2-(2,6-dioxopiperidin-3-yl)-1-oxoisoindolin-4-yl)oxy)methyl)benzyl)piperazin-1-yl)-3-fluorobenzonitrile] | 1 nM | more sensitive to daratumumab-mediated ADCP compared to untreated and pomalidomide treated cells | no enhanced ADCP | 0.1 nM | 1125 | 10 fold | 0.41 nM | 0.0429 nM | 0.018 nM | 0.98 nM | 
3 | Nc1cccc2c1C(=O)N(C1CCC(=O)NC1=O)C2=O (stereo not drawn) [Pomalidomide, pomalidomide] |  |  | no enhanced ADCP |  | 199.1 |  | 3840 nM | 118 nM | 18.8 nM | > 10000 nM | 366 nM
